≈ marks a conversion by molar mass, not a printed value. Each block holds one compound with its values, some of them ahead of it.
Key:
Test in all cases: ≥ marks a high value that may be exact or a test limit, other limits are often not marked, values filed in µg/mL are converted to µM
[1] = test system: Escherichia coli DH5alpha
[2] = test system: Micrococcus luteus ATCC 4698
[3] = test system: Staphylococcus epidermidis ATCC 12228
[4] = test system: Staphylococcus aureus ATCC 6538
[5] = test system: Salmonella typhimurium
[6] = test system: Streptococcus pyogenes
[7] = test system: Escherichia coli
[8] = test system: Pseudomonas aeruginosa
[9] = test system: Staphylococcus epidermidis
[10] = test system: Proteus vulgaris
[11] = test system: Bacillus subtilis
[12] = test system: Escherichia coli KCTC 1682
[13] = test system: Bacillus subtilis KCTC 3068
[14] = test system: Pseudomonas aeruginosa KCTC 1637
[15] = test system: Pseudomonas aeruginosa CCARM 2095
[16] = test system: Staphylococcus aureus KCTC 1621
[17] = test system: Candida albicans ATCC 64550
[18] = test system: Staphylococcus aureus CCARM 3543
[19] = test system: Staphylococcus aureus CCARM 3001
[20] = test system: Salmonella typhimurium KCTC 1926
[21] = test system: Pseudomonas aeruginosa CCARM 2109
[22] = test system: Staphylococcus epidermidis KCTC 1917
[23] = test system: Staphylococcus aureus ATCC 6538P
[24] = test system: Micrococcus luteus ATCC 10240
[25] = test system: Salmonella enterica subsp. enterica serovar Typhimurium ATCC 14028
[26] = test system: Shigella dysenteriae ATCC 9752
[27] = test system: Escherichia coli ATCC 25922
[28] = test system: Bacillus subtilis ATCC 6633
[29] = test system: Pseudomonas aeruginosa ATCC 27853
[30] = test system: Klebsiella pneumoniae ATCC 10031
[31] = test system: Candida tropicalis IOC 4560
[32] = test system: Candida albicans MDM8
[33] = test system: Trichosporon sp. IOC 4569
[34] = test system: Candida glabrata IOC 4565
[35] = test system: Candida parapsilosis IOC 4564
[36] = test system: Candida krusei IOC 4559
[37] = test system: Candida albicans IOC 4558

MIC [1]: ≥ 36.8 µM
MIC [2]: 10.3 µM (≈ 14 µg/mL)
MIC [3]: 29.4 µM (≈ 40 µg/mL)
MIC [4]: 19.1 µM (≈ 26 µg/mL)
Compound: CC(C)C[C@H](NC(=O)[C@H](CC(C)C)NC(=O)[C@H](CCCCN)NC(=O)[C@H](CO)NC(=O)[C@H](CC(C)C)NC(=O)[C@H](C)NC(=O)[C@H](CCCCN)NC(=O)[C@@H](NC(=O)[C@@H](NC(=O)[C@H](C)NC(=O)CNC(=O)[C@H](CC(C)C)NC(=O)[C@@H](N)Cc1ccccc1)C(C)C)C(C)C)C(=O)O [FLGAVVKALSKLL]

MIC [23]: 2.69 µM (≈ 3.1 µg/mL)
MIC [24]: 21.7 µM (≈ 25 µg/mL)
MIC [25]: 21.7 µM (≈ 25 µg/mL)
MIC [26]: 10.8 µM (≈ 12.5 µg/mL)
MIC [27]: 10.8 µM (≈ 12.5 µg/mL)
MIC [3]: 10.8 µM (≈ 12.5 µg/mL)
MIC [28]: 10.8 µM (≈ 12.5 µg/mL)
MIC [29]: 43.3 µM (≈ 50 µg/mL)
MIC [30]: 5.46 µM (≈ 6.29 µg/mL)
Compound: CC(C)C[C@H](NC(=O)[C@H](CCCCN)NC(=O)[C@H](CC(C)C)NC(=O)[C@H](CC(C)C)NC(=O)[C@H](Cc1c[nH]c2ccccc12)NC(=O)[C@H](CCCCN)NC(=O)[C@H](CC(C)C)NC(=O)[C@H](CC(C)C)NC(=O)[C@@H](N)CCCCN)C(N)=O [KLLKWLLKL]

MIC [31]: 16.5 µM (≈ 20.4 µg/mL)
MIC [32]: ≥ 33.5 µM
MIC [33]: 2.1 µM (≈ 2.6 µg/mL)
MIC [34]: 16.5 µM (≈ 20.4 µg/mL)
MIC [35]: ≥ 33.5 µM
MIC [36]: ≥ 33.5 µM
MIC [37]: 16.5 µM (≈ 20.4 µg/mL)
Compound: CC[C@H](C)[C@H](N)C(=O)N[C@H](C(=O)N[C@H](C(=O)N[C@@H](CCC(N)=O)C(=O)N[C@@H](Cc1ccc(O)cc1)C(=O)N[C@@H](CCC(=O)O)C(=O)NCC(=O)N[C@@H](Cc1cnc[nH]1)C(=O)N[C@@H](CCCCN)C(=O)N[C@@H](Cc1cnc[nH]1)C(=O)O)[C@@H](C)CC)[C@@H](C)CC [IIIQYEGHKH]

The next lines start with the compound.

Compound: CC(C)C[C@H](NC(=O)[C@H](CCCN=C(N)N)NC(=O)[C@@H]1CCCN1C(=O)[C@H](Cc1cnc[nH]1)NC(=O)[C@@H]1CCCN1C(=O)[C@@H]1CCCN1C(=O)[C@H](CCCN=C(N)N)NC(=O)[C@@H]1CCCN1C(=O)[C@@H]1CCCN1C(=O)[C@H](Cc1cnc[nH]1)NC(=O)[C@@H]1CCCN1C(=O)[C@@H]1CCCN1C(=O)[C@H](CCCN=C(N)N)NC(=O)[C@@H]1CCCN1C(=O)[C@@H]1CCCN1C(=O)[C@H](Cc1cnc[nH]1)NC(=O)[C@@H]1CCCN1C(=O)[C@@H]1CCCN1C(=O)[C@H](CCCN=C(N)N)NC(=O)[C@@H]1CCCN1C(=O)[C@@H]1CCCN1C(=O)[C@H](Cc1cnc[nH]1)NC(=O)[C@@H]1CCCN1C(=O)[C@@H]1CCCN1C(=O)[C@H](CCCN=C(N)N)NC(=O)[C@@H]1CCCN1)C(=O)O [PRPPHPPRPPHPPRPPHPPRPPHPRL]
MIC [5]: 0.5 µM (≈ 1.51 µg/mL)
MIC [6]: ≥ 64 µM
MIC [7]: 1 µM (≈ 3.01 µg/mL)
MIC [8]: 4 µM (≈ 12.1 µg/mL)
MIC [9]: ≥ 64 µM
MIC [10]: 2 µM (≈ 6.03 µg/mL)
MIC [11]: ≥ 32 µM

Compound: CC(C)C[C@H](NC(=O)[C@H](CC(C)C)NC(=O)[C@H](CCCCN)NC(=O)[C@H](CO)NC(=O)[C@H](CC(C)C)NC(=O)[C@@H](NC(=O)[C@H](CCCCN)NC(=O)[C@H](Cc1ccccc1)NC(=O)[C@H](CC(C)C)NC(=O)[C@@H](NC(=O)CNC(=O)[C@H](CC(C)C)NC(=O)[C@@H](N)Cc1ccccc1)C(C)C)C(C)C)C(=O)O [FLGVLFKVLSKLL]
MIC [1]: ≥ 271 µM
MIC [2]: 1.35 µM (≈ 2 µg/mL)
MIC [3]: 5.42 µM (≈ 8 µg/mL)
MIC [4]: 2.03 µM (≈ 3 µg/mL)

Compound: CC(C)C[C@H](NC(=O)[C@H](CCCN=C(N)N)NC(=O)[C@@H]1CCCN1C(=O)[C@H](Cc1cnc[nH]1)NC(=O)[C@@H]1CCCN1C(=O)[C@@H]1CCCN1C(=O)[C@H](CCCN=C(N)N)NC(=O)[C@@H]1CCCN1C(=O)[C@@H](N)CCC(N)=O)C(=O)O [QPRPPHPRL]
MIC [5]: ≥ 32 µM
MIC [6]: ≥ 64 µM
MIC [7]: 64 µM (≈ 70.2 µg/mL)
MIC [8]: 64 µM (≈ 70.2 µg/mL)
MIC [9]: ≥ 64 µM
MIC [10]: ≥ 64 µM
MIC [11]: ≥ 64 µM

Compound: CC(C)C[C@H](NC(=O)[C@H](Cc1c[nH]c2ccccc12)NC(=O)[C@H](CCCCN)NC(=O)[C@H](CCCCN)NC(=O)[C@H](Cc1c[nH]c2ccccc12)NC(=O)[C@H](CC(C)C)NC(=O)[C@H](CCCCN)NC(=O)[C@H](Cc1c[nH]c2ccccc12)NC(=O)[C@H](CC(C)C)NC(=O)[C@@H](N)CCCCN)C(=O)N[C@@H](CCCCN)C(N)=O [KLWKLWKKWLK]
MIC [12]: 2 µM (≈ 3.11 µg/mL)
MIC [13]: 4 µM (≈ 6.22 µg/mL)
MIC [14]: 2 µM (≈ 3.11 µg/mL)
MIC [15]: 4 µM (≈ 6.22 µg/mL)
MIC [16]: 2 µM (≈ 3.11 µg/mL)
MIC [17]: ≥ 100 µM
MIC [18]: 4 µM (≈ 6.22 µg/mL)
MIC [19]: 4 µM (≈ 6.22 µg/mL)
MIC [20]: 1 µM (≈ 1.56 µg/mL)
MIC [21]: 8 µM (≈ 12.4 µg/mL)
MIC [22]: 2 µM (≈ 3.11 µg/mL)

Compound: CC(C)C[C@H](NC(=O)[C@@H](N)CCCN=C(N)N)C(=O)N[C@@H](Cc1c[nH]c2ccccc12)C(=O)N[C@@H](CCCN=C(N)N)C(=O)N[C@@H](CCCN=C(N)N)C(=O)N[C@@H](Cc1c[nH]c2ccccc12)C(=O)N[C@@H](CCCN=C(N)N)C(=O)N[C@@H](CCCN=C(N)N)C(=O)N[C@@H](Cc1c[nH]c2ccccc12)C(=O)N[C@@H](CCCN=C(N)N)C(=O)N[C@@H](CCCN=C(N)N)C(N)=O [RLWRRWRRWRR]
MIC [12]: 8 µM (≈ 14.3 µg/mL)
MIC [13]: 4 µM (≈ 7.13 µg/mL)
MIC [14]: 8 µM (≈ 14.3 µg/mL)
MIC [15]: 16 µM (≈ 28.5 µg/mL)
MIC [16]: 4 µM (≈ 7.13 µg/mL)
MIC [18]: 2 µM (≈ 3.56 µg/mL)
MIC [19]: 8 µM (≈ 14.3 µg/mL)
MIC [20]: 4 µM (≈ 7.13 µg/mL)
MIC [21]: 16 µM (≈ 28.5 µg/mL)
MIC [22]: 2 µM (≈ 3.56 µg/mL)
